Experiment [1] is described as follows: Inhibition of bovine pancreas trypsin. Set-up: species or system Bos taurus.
The target in the next experiment is T1, Cytosol aminopeptidase (Sus scrofa, UniProt P28839).
T1 sequence (P28839 whole entry): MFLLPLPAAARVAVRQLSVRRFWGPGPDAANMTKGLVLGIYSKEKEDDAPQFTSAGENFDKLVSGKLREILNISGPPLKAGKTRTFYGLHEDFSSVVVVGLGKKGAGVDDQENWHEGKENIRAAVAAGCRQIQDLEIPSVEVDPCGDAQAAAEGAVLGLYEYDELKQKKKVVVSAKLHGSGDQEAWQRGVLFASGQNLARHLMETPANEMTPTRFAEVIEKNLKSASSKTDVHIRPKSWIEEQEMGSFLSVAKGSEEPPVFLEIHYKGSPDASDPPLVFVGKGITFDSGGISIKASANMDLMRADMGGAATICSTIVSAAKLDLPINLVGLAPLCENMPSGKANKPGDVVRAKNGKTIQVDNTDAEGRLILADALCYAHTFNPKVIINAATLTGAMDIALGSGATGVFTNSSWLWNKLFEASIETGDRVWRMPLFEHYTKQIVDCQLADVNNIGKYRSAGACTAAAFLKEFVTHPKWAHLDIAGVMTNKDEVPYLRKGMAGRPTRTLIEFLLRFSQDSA
The experiment can be described thus: Inhibition of pig kidney cytosolic Leucyl aminopeptidase.

Structures are written as SMILES.

In experiment [1], `COc1cc(C2Oc3c(O)cc([C@H]4Oc5cc(O)cc(O)c5C(=O)[C@@H]4O)cc3C2CO)ccc1O` (stereo not given in full) [SILICRISTIN] yielded an IC50 of 144 µM.

`O=c1c(O)c(-c2cc(O)c(O)c(O)c2)oc2cc(O)cc(O)c12` [MYRICETIN]: 10.2 µM corresponded to half-maximal inhibition in experiment [1] (IC50).

Compound `O=c1cc(-c2ccc(O)c(O)c2)oc2ccccc12` showed an IC50 on Cytosol aminopeptidase of 35.1 µM.

With `O=c1cc(-c2ccc(O)cc2)oc2cc(O)cc(O)c12` [APIGENIN], the IC50 in experiment [1] worked out at 142 µM.

Turning to `O=c1c(O)c(-c2ccc(O)c(O)c2)oc2cc(O)cc(O)c12` [QUERCETIN], the values for the IC50 (on Cytosol aminopeptidase; in experiment [1]) were 34.3 µM and 7.1 µM, respectively.

Turning to `O=c1c(O)c(-c2ccc(O)cc2)oc2cc(O)cc(O)c12` [KAEMPFEROL], in experiment [1], half-maximal inhibition (IC50) required 106 µM.

For the compound `O=c1c(O)c(-c2ccc(O)cc2O)oc2cc(O)cc(O)c12` [MORIN], it took 111 µM to reach half-maximal inhibition in experiment [1] (IC50).

In the case of `O=c1cc(-c2ccc(O)c(O)c2)oc2cc(O)cc(O)c12` [LUTEOLIN], the IC50 at Cytosol aminopeptidase was 49.6 µM; in experiment [1] it was 35.3 µM.

What is called IC50 is the concentration at which inhibition is half-maximal.

(Values after ChEMBL document CHEMBL1159252, “Flavonoid inhibitors of trypsin and leucine aminopeptidase: a proposed mathematical model for IC50 estimation” (J Nat Prod, 1995).)
